From patent US6710049B2, “Azole compounds as anti-fungal agents” (Ranbaxy Laboratories Limited, priority 2000, dated 2004)
Converted amounts (≈) assume the structure as drawn.

Key:
T. mentagrophyte = assay: Activity against dermatophytes; type: cell-based; design: unit not given here
Text: (§1) The in-vitro evaluation of the antifungal activity of the compounds can be performed by determining the minimum inhibitory concentration (MIC) as shown in Table 1 which is the concentration of the test compound in Rosewell Park Memorial Institute (RPMI) 1640 liquid medium buffered with 3-(Morpholino)propanesulphonic acid (MOPS) to pH 7, at which there is significant inhibition of the particular fungi. In practice the National Committee for Clinical Laboratory Standard (NCCLS) M27A document for Candida and Cryptococcus and M38P for Aspergillus was used to determine the MIC against yeast and filamentous fungi with suitable modifications for dermatophytes to other filamentous fungi. Three quality control strains were included each time the MIC were determined and readings recorded only when the Quality Control results fell into the acceptable range. After MIC results had been recorded, 100 μl from each of the well showing no growth was spread over Sabouraud Dextrose Agar (SDA) to determine the minimum fungicidal concentration (MFC) as shown in Table 2.
(§2) A comparative in vitro and in vivo biologically activity data of the compound of our invention, 2-{[1R,2R]-2-(2,4-Difluorophenyl)-2-hydroxy-1-methyl-3-(1H-1,2,4-triazole-1-yl)propyl}-4-[(2′,2′,3′,3′-tetrafluoropropoxyphenyl)-3-(2H,4H)-1,2,4-thiotriazolone (Compound No. 3) with 2-[(1R,2R)-2-(2,4-difluorophenyl)-2-hydroxy-1-methyl-3-(1H-1,2,4-triazol-1-yl)propyl]-4-(2′,2′,3′,3′-tetraflouropropoxyphenyl)-3(2H,4H)-1,2,4-triazolone (TAK 187) and standard antifungal pharmaceuticals is given below: […]

T. rubrum = assay: Activity against dermatophytes; type: cell-based; design: unit not given here
Text: as §1, §2

Aspergillus species = conditions: isolates of Aspergillus species; cited from earlier work
[1] = target: lanosterol 14α-de-methylase; conditions: the target enzyme in the fungus; cited from earlier work

SMILES	Activity against dermatophytes (T. mentagrophyte)	Activity against dermatophytes (T. rubrum)	minimum inhibitory concentration (MIC) values (Aspergillus species) [µg/mL]	IC50 [1] [µM]
OC(Cn1cncn1)(Cn1cncn1)c1ccc(F)cc1F [Fluconazole]	>128	>128	400 (≈ 1310 µM)	4.8
CCC(C)n1ncn(-c2ccc(N3CCN(c4ccc(OCC5COC(Cn6cncn6)(c6ccc(Cl)cc6Cl)O5)cc4)CC3)cc2)c1=O (stereo not drawn) [Itraconazole]	0.125	0.03		
